The source of these data is patent publication US9017713B2, “Magnetic carrier and medical preparation for controllable delivery and release of active substances, methods of their production and methods of treatment using thereof” (priority 2006, dated 2015).

The conditions of data set [1]: F 127 ferrofluid gel, constant magnetic field; cited from earlier work.
Data set [2] can be described thus: Desorption of pharmaceutical from heat-sensitive polymer film on magnetic carrier by cooling below LCST. The conditions noted are these: Fe0.49Rh0.51 plates with graphite layer, film of copolymer NIPAAm with 35 mol % tBuAM; cooled below LCST to 15.9° C. Type of data set: physicochemical. The method, then: The method may be realized, for example, as follows: quenched magnetic material Fe0.49Rh0.51 covered with a heat-sensitive polymer together with a pharmaceutical (for example, anti-inflammatory) in the form of particles in of about 150-200 nm is administered inside of an organism through a catheter and delivery of the aforementioned particles is performed to a target organ or a tissue. Magnetic field of 2 T is applied on the area, where the particles are concentrated. The magnetic material is cooled by 13° C., which results in refrigerating of a heat-sensitive polymer, for example (co)polymer N-iso-propyl acrylamide, down to temperature below LCST, in this case down to 24° C., and desorption of the pharmaceutical from the surface of heat-sensitive polymer takes place.
A procedure analogous to that described in Example 4, but administration of a pharmaceutical Adriablastin in an organism is made, when the magnetic carrier represents alloy of iron-rhodium Fe0.49Rh0.51, which surface is covered with copolymer NIPAAm with 35 mol % of tBuAM film, with alloy surface preliminary covered with a thin protective graphite layer (preventing oxidation); the magnetic material is prepared in the form of plates. […]

vitamin B12: the “Increase of release after application of magnetic field to the gel” value in data set [1] was 20%. `COc1cccc2c1C(=O)c1c(O)c3c(c(O)c1C2=O)C[C@@](O)(C(=O)CO)C[C@@H]3O[C@H]1C[C@H](N)[C@H](O)[C@H](C)O1` [Adriablastin] showed a Time of desorption in data set [2] of 30 ± 5 min.
